Source: patent US9260461B2, “Water-soluble derivatives and prodrugs of acacetin and methods of making and using thereof” (Versitech Limited, priority 2014, dated 2016)
Where two headings read alike, the source gives them in different places.

Legend:
[1] = background statement; cited from earlier work
myocyte apoptosis = assay: TUNEL staining of myocardial slices; parameters: species or system rat; settings: 3 μM; vehicle 51.1±3.8%; n=5, P<0.01 vs. vehicle
Procedure: To observe the histological changes of the ischemia-reperfusion hearts, the left ventricle was sectioned into 2-3 mm slices and drop-fixed in 10% formalin solution. After adequate fixation (a minimum 48 hours in room temperature), tissue slices were transferred into 70% ethanol for long term storage at 4° C. Tissue paraffin infiltration is processed in the tissue processor (Leica, Asp200s).
When the program was complete, tissue slices with cut side down were transferred into a mold with paraffin to form a block. The tissue block was placed on a microtome (Leica, RM2125/RT, Germany) and cut into ˜5 μm slices. The tissue slices were float on the surface of 37° C. water bath until flat and then collected onto clean glass slides. […]
Terminal deoxynucleotidyl transferase-mediated dUTP nick end labeling (TUNEL) staining of myocardial slices was performed to detect apoptosis in myocardium using the TUNEL Apoptosis detection kit (Genscript, Cat. No L00297, Piscataway, N.J., USA) according to the manufacturer's instructions. […] For quantitative analysis, TUNEL-positive cells in 10 different sectors with approximately 100-200 cells/sector were counted with high-power magnification, Axioskop 2 plus with software Axioversion (Axiovs 20v.4.8.2.0). Apoptotic cells were expressed as percentage of total cells in the field.

isolated rat hearts = assay: Ischemia-reperfusion model in isolated rat hearts (Langendorff): coronary flow rate and contractile function; parameters: species or system SD rats; settings: for coronary flow rate versus control: n=10-12
Procedure: Male SD rats (250-300 g) were anesthetized with phenobarbital (30 mg/kg, i.p.), and the heart were isolated and mounted to a Langendorff heart perfusion apparatus via the aorta and perfused with Krebs-Henseleit solution at 37° C. gassed with 95% O2 and 5% CO2. A saline-filled latex balloon connected by a polyethylene catheter to a pressure transducer was inserted into the left ventricle via an incision on the left atrium to measure left ventricular (LV) pressure. The balloon volume was adjusted and kept at a diastolic pressure of 0-5 mm Hg following insertion. ECG was recorded with two electrodes placed at the apex and the aorta. Signals were continuously monitored and stored on an IBM compatible PC computer using a multiple channels data acquisition system (Chengdu Instrument Ltd, Chendu, China).
A silk suture was placed around the left anterior descending artery (LAD) 2 mm distal to the left atrial appendage. A short length of polyethylene tube was placed over the suture on LAD as an occluder and the suture was pulled and the tube to ligate the coronary artery to induce regional ischemia. After a 20-min stabilization period, the hearts were treated by vehicle (DMSO control) or 0.3, 1, or 3 μM of the parent compound acacetin (0.3, 1, or 3 μM) for 10 min, and the LAD was ligated for 30-min. The ligation was released to allow for reperfusion for 2 h. Myocardial ischemia was confirmed by a decrease in left ventricular developed pressure and specific ST-T elevation on the ECG. At completing the reperfusion, the hearts were used to perform histological and/or molecular/biochemical analysis.
Hearts were excluded from the study if one of the following criteria was observed: (1) left ventricular developed pressure (LVP) was below 80 mmHg during baseline stabilization; (2) aortic wall was damaged during cannulation leading to a leakage during perfusion; or (3) hearts suffered from sustained irreversible arrhythmia during stabilization.
To determine the mechanisms of cardioprotection, the ischemia-reperfusion model was established in isolated rat hearts using accurate concentrations of the parent compound acacetin. The hearts perfused with the Langendorff system were exposed to 30 min ischemia (coronary ligation) followed by 120 min reperfusion (FIG. 5). After a 20 min stabilization period, the heart was treated with 0.3, 1, 3 μM acacetin, or equivolume vehicle (DMSO) for 10 min and then 30 min during ischemia.

[2] = Solubility of the purified prodrugs versus parent compound acacetin; assay type: physicochemical
Source text: Prodrug B: Light yellow solid. Yield 54%. C16H11O7PNa2 (408.21). EI-MS: m/z 387.04 [M+H—Na]^+. ^1H NMR (400 MHz, DMSO-d6): δ=12.90 (s, 1H), 8.04 (d, J=8.8 Hz, 2H), 7.10 (d, J=8.8 Hz, 2H), 7.02 (s, 1H), 6.98 (s, 1H), 6.60 (s, 1H), 3.89 (s, 3H) ppm.

COc1ccc(-c2cc(=O)c3c(O)cc(O)cc3o2)cc1 [acacetin]
water solubility [1]: water-insoluble
TUNEL-positive nuclei (percentage cell number) (myocyte apoptosis): 20.2±4.1%
coronary flow rate versus control (isolated rat hearts; 0.3 μM, before ischemia): 108.9±2.3%
coronary flow rate versus control (isolated rat hearts; 1 μM, before ischemia): 122.1±4.9%
increase of heart contractile function (left ventricular systolic pressure and +dP/dT) (isolated rat hearts; 3 μM, before ischemia, n=10, P<0.01): around 10 % of control
coronary flow rate versus control (isolated rat hearts; 3 μM, before ischemia): 125.8±6.6%
improvement of reduced coronary flow rate, difference vs. vehicle (isolated rat hearts; 3 μM, during ischemia and reperfusion, P<0.01 vs. vehicle): 16-25%
prevention of decrease of heart contractile function induced by ischemia-reperfusion, difference vs. vehicle (isolated rat hearts; 3 μM, P<0.01 vs. vehicle): 15-20%
solubility ([2]; aqueous buffer, comparison with Tris solution pH=7.0, read-out: solubility (parent compound, compared with Prodrug A in Tris solution)): < 0.2 µg/mL
solubility ([2]; water, H2O, read-out: solubility (parent compound, compared with Prodrug B in H2O)): < 0.1 µg/mL
